Test results: US20050038007A1, “Dosage forms of cholesteryl ester transfer protein inhibitors and HMG-CoA reductase inhibitors” (Pfizer Inc, priority 2003, published 2005)

Test: Aqueous solubility of torcetrapib
Type: physicochemical
Conditions: water (aqueous), at about 22° C.
Procedure: The CETP inhibitor may be any compound capable of inhibiting the cholesteryl ester transfer protein. […] Many CETP inhibitors have even lower solubilities (some even less than 0.1 μg/mL), and require dramatic concentration enhancement to be sufficiently bioavailable upon oral dosing for effective plasma concentrations to be reached at practical doses.
CETP inhibitors, in particular torcetrapib, and methods for preparing such compounds are disclosed in detail in U.S. Pat. Nos. 6,197,786 and 6,313,142, in PCT Application Nos. WO 01/40190A1, WO 02/088085A2, and WO 02/088069A2, the disclosures of which are herein incorporated by reference. Torcetrapib has an unusually low solubility in aqueous environments such as the lumenal fluid of the human GI tract. The aqueous solubility of torcetrapib is less than about 0.04 μg/ml. Torcetrapib must be presented to the GI tract in a solubility-improved form in order to achieve a sufficient drug concentration in the GI tract in order to achieve sufficient absorption into the blood to elicit the desired therapeutic effect.

CCOC(=O)N1c2ccc(C(F)(F)F)cc2[C@@H](N(Cc2cc(C(F)(F)F)cc(C(F)(F)F)c2)C(=O)OC)C[C@H]1CC [Torcetrapib, [2R,4S]-4-[(3,5-bis-trifluoromethyl-benzyl)-methoxycarbonyl-amino]-2-ethyl-6-trifluoromethyl-3,4-dihydro-2H-quinoline-1-carboxylic acid ethyl ester]
solubility: < 0.04 µg/mL
